Results as given in patent US8524738B2, “Quinolinones and quinoxalinones as antibacterial composition” (Toyama Chemical Co., Ltd., priority 2005, dated 2013).
≈ marks a conversion by molar mass, not a printed value. Structures can show the parent of a compound that is named as a salt.

Test system: Staphylococcus aureus (S. aureus FDA209P)
Test: Sensitivity Test 1: antibacterial activity (MIC) by micro-dilution method
Format: cell-based
Conditions: FDA209P
Method: Test compounds were initially dissolved in dimethylsulfoxide. Antibacterial activities (MICs) of the same compounds were determined by the micro-dilution method as recommended by the Japanese Society of Chemotherapy.
Staphylococcus aureus (S. aureus FDA209P) was used as the test organism. The bacterial cells were grown overnight at 35° C. on Mueller-Hinton agar (MHA) plates. The bacterial cells were then suspended in sterile saline and adjusted to the turbidity of a 0.5 McFarland standard. The inoculum was prepared by 10-fold dilution of this suspension. Approximately 0.005 mL aliquots of the inoculum prepared above were subsequently inoculated into Cation-adjusted Mueller-Hinton broth (CAMHB, 100 μL/well) including the test compounds for overnight incubation at 35° C.

Which MIC does the source give for `O=c1cnc2ccccc2n1CCN1CCC(NCc2ccc3c(c2)OCCO3)CC1` [Example 28, 1-(2-(4-((2,3-dihydro-1,4-benzodioxin-6-ylmethyl)amino)piperidin-1-yl)ethyl)quinoxalin-2(1H)-one hydrochloride] here?
The MIC was 0.0625 µg/mL.

With `COc1ccc2c(C)cc(=O)n(CCN3CCC(NCCSc4cccs4)CC3)c2c1` [Example 57, 7-methoxy-4-methyl-1-(2-(4-((2-(2-thienylthio)ethyl)amino)piperidin-1-yl)ethyl)quinolin-2(1H)one hydrochloride] as the compound, how does the MIC read?
The MIC was 0.0625 µg/mL.

How did the MIC turn out when `Nc1cc(=O)n(CCN2CCC(NCc3ccc4c(c3)OCCO4)CC2)c2ccccc12` [Example 97, 4-amino-1-(2-(4-((2,3-dihydro-1,4-benzodioxin-6-ylmethyl)amino)piperidin-1-yl)ethyl)-quinolin-2(1H)-one hydrochloride] was run?
The MIC was 0.125 µg/mL.

For `CCOc1ccc2c(C)cc(=O)n(CCN3CCC(NCc4ccc5c(c4)OCCO5)CC3)c2c1` [Example 104, 1-(2-(4-((2,3-dihydro-1,4-benzodioxin-6-ylmethyl)amino)piperidin-1-yl)ethyl)-7-ethoxy-4-methylquinolin-2(1H)-one hydrochloride], which MIC is on record?
Its MIC is 0.0625 µg/mL.

`Cc1cc(=O)n(CCN2CCC(NCc3ccc4c(c3)OCCO4)CC2)c2cc(Cl)ccc12` [Example 107, 7-chloro-1-(2-(4-((2,3-dihydro-1,4-benzodioxin-6-ylmethyl)amino)piperidin-1-yl)ethyl)-4-methylquinolin-2(1H)-one hydrochloride] was tested. Which MIC did it give?
Its MIC is 0.0313 µg/mL.

For `Cc1cc(=O)n(CCN2CCC(NCc3ccc4c(c3)OCCO4)CC2)c2cc(F)ccc12` [Example 109, 1-(2-(4-((2,3-dihydro-1,4-benzodioxin-6-ylmethyl)amino)piperidin-1-yl)ethyl)-7-fluoro-4-methylquinolin-2(1H)-one hydrochloride], which MIC is on record?
Its MIC is 0.125 µg/mL.

`Cc1cc(=O)n(CCN2CCC(NCc3ccc4c(c3)OCCO4)CC2)c2cc(-n3ccnc3)ccc12` [Example 125, 1-(2-(4-((2,3-dihydro-1,4-benzodioxin-6-ylmethyl)amino)piperidin-1-yl)ethyl)-7-(1H-imidazol-1-yl)-4-methylquinolin-2(1H)-one hydrochloride] was tested. Which MIC did it give?
Its MIC is 0.0313 µg/mL.

How did the MIC turn out when `Cc1cc(=O)n(CCN2CCC(NCc3ccc4c(c3)OCCO4)CC2)c2cc(OC(F)F)ccc12` [Example 127, 7-(difluoromethoxy)-1-(2-(4-((2,3-dihydro-1,4-benzodioxin-6-ylmethyl)amino)piperidin-1-yl)ethyl)-4-methylquinolin-2(1H)-one hydrochloride] was run?
The MIC was 0.0625 µg/mL.

Which MIC does the source give for `Cc1cc(=O)n(CCN2CCC(NCc3ccc4c(c3)OCCO4)CC2)c2cc(OC3CC3)ccc12` [Example 129, 7-cyclopropoxy-1-(2-(4-((2,3-dihydro-1,4-benzodioxin-6-ylmethyl)amino)piperidin-1-yl)ethyl)-4-methylquinolin-2(1H)-one hydrochloride] here?
Its MIC is 0.0625 µg/mL.

Same assay, conditions: S. aureus FDA209P, CAMHB, overnight incubation at 35° C., lowest concentration with virtually no growth, read-out: MIC

`CNC(=O)C1CN(CCn2c(=O)ccc3ccc(OC)cc32)CCC1NCc1ccc2c(c1)OCCO2` (single isomer, unassigned) [Example 176, 4-((2,3-dihydro-1,4-benzodioxin-6-ylmethyl)amino)-1-(2-(7-methoxy-2-oxoquinolin-1(2H)-yl)ethyl)-N-methylpiperidine-3-carboxamide] was tested. Which MIC did it give?
Its MIC is 0.0625 µg/mL (≈ 0.123 µM).

For `COc1ccc2c(C)cc(=O)n(CCN3CCC(NCC(=O)Nc4ccccn4)CC3)c2c1` [Example 18, N-(pyridin-2-yl)-N^2-(1-(2-(7-methoxy-4-methyl-2-oxoquinolin-1(2H)-yl)ethyl)piperidin-4-yl)glycinamide], which MIC is on record?
Its MIC is 0.25 µg/mL (≈ 0.556 µM).

With `COc1ccc2ccc(=O)n(CCN3CCC(NC(=O)c4ccc5c(c4)OCCO5)CC3)c2c1` [Example 36, N-(1-(2-(7-methoxy-2-oxoquinolin-1(2H)-yl)ethyl)piperidin-4-yl)-2,3-dihydro-1,4-benzodioxin-6-carboxamide] as the compound, how does the MIC read?
The MIC was 0.125 µg/mL (≈ 0.27 µM).

`COc1ccc2c(C)cc(=O)n(CCN3CCC(NCCCc4ccccc4)CC3)c2c1` [Example 39, 7-methoxy-4-methyl-1-(2-(4-((3-phenylpropyl)amino)piperidin-1-yl)ethyl)quinolin-2(1H)-one] was tested. Which MIC did it give?
The MIC was 0.0625 µg/mL (≈ 0.144 µM).

With `COc1ccc2ccc(=O)n(CCCC3(C(=O)O)CCN(CCSc4cccc(F)c4)CC3)c2c1` [Example 51, 1-(2-((3-fluorophenyl)thio)ethyl)-4-(3-(7-methoxy-2-oxoquinolin-1(2H)-yl)propyl)piperidine-4-carboxylic acid] as the compound, how does the MIC read?
Its MIC is 0.125 µg/mL (≈ 0.251 µM).

`COc1ccc2c(C)cc(=O)n(CCN3CCN(CCc4ccc5c(c4)OCCO5)C(C(=O)O)C3)c2c1` (stereo not shown) [Example 53, 1-(2-(2,3-dihydro-1,4-benzodioxin-6-yl)ethyl)-4-(2-(7-methoxy-4-methyl-2-oxoquinolin-1(2H)-yl)ethyl)piperazine-2-carboxylic acid] was tested. Which MIC did it give?
The MIC was 1 µg/mL (≈ 1.97 µM).

Which MIC does the source give for `CNC(=O)c1cc(=O)n(CCN2CCC(NCc3cc4c(cn3)OCCO4)CC2)c2cc(OC)ccc12` [Example 66, 1-(2-(4-((2,3-dihydro(1,4)dioxino(2,3-c)pyridin-7-ylmethyl)amino)piperidin-1-yl)ethyl)-7-methoxy-N-methyl-2-oxo-1,2-dihydroquinoline-4-carboxamide] here?
The MIC was 0.25 µg/mL (≈ 0.493 µM).

`COc1ccc2c(C(N)=O)cc(=O)n(CCN3CCC(NCc4ccc5c(c4)OCCO5)CC3)c2c1` [Example 70, 1-(2-(4-((2,3-dihydro-1,4-benzodioxin-6-ylmethyl)amino)piperidin-1-yl)ethyl)-7-methoxy-2-oxo-1,2-dihydroquinoline-4-carboxamide] was tested. Which MIC did it give?
The MIC was 0.25 µg/mL (≈ 0.508 µM).

Which MIC does the source give for `CCNC(=O)c1cc(=O)n(CCN2CCC(NCc3ccc4c(c3)OCCO4)CC2)c2cc(OC)ccc12` [Example 77, 1-(2-(4-((2,3-dihydro-1,4-benzodioxin-6-ylmethyl)amino)piperidin-1-yl)ethyl)N-ethyl-7-methoxy-2-oxo-1,2-dihydroquinoline-4-carboxamide] here?
The MIC was 0.125 µg/mL (≈ 0.24 µM).

For `COc1ccc2c(C(=O)NC3CC3)cc(=O)n(CCN3CCC(NCc4ccc5c(c4)OCCO5)CC3)c2c1` [Example 79, N-cyclopropyl-1-(2-(4-((2,3-dihydro-1,4-benzodioxin-6-ylmethyl)amino)piperidin-1-yl)ethyl)-7-methoxy-2-oxo-1,2-dihydroquinoline-4-carboxamide], which MIC is on record?
Its MIC is 0.0625 µg/mL (≈ 0.117 µM).

Which MIC does the source give for `COc1ccc2c(C(=O)Nc3ccccc3)cc(=O)n(CCN3CCC(NCc4ccc5c(c4)OCCO5)CC3)c2c1` [Example 83, 1-(2-(4-((2,3-dihydro-1,4-benzodioxin-6-ylmethyl)amino)piperidin-1-yl)ethyl)-7-methoxy-2-oxo-N-phenyl-1,2-dihydroquinoline-4-carboxamide] here?
The MIC was 0.0625 µg/mL (≈ 0.11 µM).

How did the MIC turn out when `COc1ccc2c(C)cc(=O)n(CCC3(C(N)=O)CCC(NCc4ccc5c(c4)OCCO5)CC3)c2c1` (stereo not shown) [Example 155, 4-((2,3-dihydro-1,4-benzodioxin-6-ylmethyl)amino)-1-(2-(7-methoxy-4-methyl-2-oxoquinolin-1(2H)-yl)ethyl)cyclohexanecarboxamide] was run?
Its MIC is 0.125 µg/mL (≈ 0.247 µM).

`CNC(=O)c1cc(=O)n(CCN2CCC(NCc3ccc(C(F)(F)F)c(F)c3)CC2)c2cc(OC)ccc12` [Example 182, 1-(2-(4-((3-fluoro-4-(trifluoromethyl)benzyl)amino)piperidin-1-yl)ethyl)-7-methoxy-N-methyl-2-oxo-1,2-dihydroquinoline-4-carboxamide] was tested. Which MIC did it give?
The MIC was 0.0625 µg/mL (≈ 0.117 µM).
